Data set [1] can be described thus: Ratio of free drug level in brain of Sprague-Dawley rat assessed as 6-(4-chlorophenyl)-3-(6-(4-hydroxypiperidin-1-yl)pyridin-3-yl)pyrrolo[1,2-f][1,2,4]triazin-4(3H)-one level at 3 mg/kg, po to Ki for rat MCHR1. The conditions noted are these: in vivo. It counts as ADME, organism-based.
Data set [2] deals with Rattus norvegicus. Kind of data set: Antiobesity activity in Sprague-Dawley rat assessed as body weight reduction at 3 mg/kg, po qd after 4 days relative to control. It counts as functional. Particulars: 96 h.
Data set [3] relates to Plasma. Kind of data set: Fraction unbound in Sprague-Dawley rat plasma assessed as 6-(4-chlorophenyl)-3-(6-(4-hydroxypiperidin-1-yl)pyridin-3-yl)pyrrolo[1,2-f][1,2,4]triazin-4(3H)-one level. Type of data set: ADME, cell-free.
Data set [4] has as its system Brain. The experiment in a line: Drug concentration in Sprague-Dawley rat brain assessed as 6-(4-chlorophenyl)-3-(6-(4-hydroxypiperidin-1-yl)pyridin-3-yl)pyrrolo[1,2-f][1,2,4]triazin-4(3H)-one level at 3 mg/kg, po qd at 20 hrs. It counts as ADME, organism-based. The conditions noted are these: in vivo, read-out: Drug uptake.
The test system of data set [5] is Brain. The experiment in a line: Free drug level in Sprague-Dawley rat brain assessed as 6-(4-chlorophenyl)-3-(6-(4-hydroxypiperidin-1-yl)pyridin-3-yl)pyrrolo[1,2-f][1,2,4]triazin-4(3H)-one level at 10 mg/kg, po qd at 20 hrs. The conditions noted are these: in vivo. Type of data set: ADME, organism-based.
A short description of data set [6]: Ratio of free drug level in brain of Sprague-Dawley rat assessed as 6-(4-chlorophenyl)-3-(6-(4-hydroxypiperidin-1-yl)pyridin-3-yl)pyrrolo[1,2-f][1,2,4]triazin-4(3H)-one level at 30 mg/kg, po to Ki for rat MCHR1. Type of data set: ADME, organism-based. Particulars: in vivo.
The nature of data set [7]: Ratio of free drug level in brain of Sprague-Dawley rat assessed as 6-(4-chlorophenyl)-3-(6-(4-hydroxypiperidin-1-yl)pyridin-3-yl)pyrrolo[1,2-f][1,2,4]triazin-4(3H)-one level at 10 mg/kg, po to Ki for rat MCHR1. Type of data set: ADME, organism-based. The conditions noted are these: in vivo.
For data set [8], the system named is Brain. Kind of data set: Free drug level in Sprague-Dawley rat brain assessed as 6-(4-chlorophenyl)-3-(6-(4-hydroxypiperidin-1-yl)pyridin-3-yl)pyrrolo[1,2-f][1,2,4]triazin-4(3H)-one level at 3 mg/kg, po qd at 20 hrs. Particulars: in vivo. Type of data set: ADME, organism-based.
Data set [9] concerns Brain. The experiment in a line: Free drug level in Sprague-Dawley rat brain assessed as 6-(4-chlorophenyl)-3-(6-(4-hydroxypiperidin-1-yl)pyridin-3-yl)pyrrolo[1,2-f][1,2,4]triazin-4(3H)-one level at 30 mg/kg, po qd at 20 hrs. Type of data set: ADME, organism-based. Particulars: in vivo.
In data set [10] the test system is Rattus norvegicus. The experiment in a line: Antiobesity activity in Sprague-Dawley rat assessed as body weight reduction at 30 mg/kg, po qd after 4 days relative to control. It counts as functional. The conditions noted are these: 96 h.
The test system of data set [11] is Brain. Kind of data set: Drug concentration in Sprague-Dawley rat brain assessed as 6-(4-chlorophenyl)-3-(6-(4-hydroxypiperidin-1-yl)pyridin-3-yl)pyrrolo[1,2-f][1,2,4]triazin-4(3H)-one level at 10 mg/kg, po qd at 20 hrs. Type of data set: ADME, organism-based. Particulars: in vivo, read-out: Drug uptake.
The test system of data set [12] is Rattus norvegicus. Kind of data set: Antiobesity activity in Sprague-Dawley rat assessed as body weight reduction at 10 mg/kg, po qd after 4 days relative to control. It counts as functional. The conditions noted are these: 96 h.
Data set [13] concerns Brain. The experiment in a line: Drug concentration in Sprague-Dawley rat brain assessed as 6-(4-chlorophenyl)-3-(6-(4-hydroxypiperidin-1-yl)pyridin-3-yl)pyrrolo[1,2-f][1,2,4]triazin-4(3H)-one level at 30 mg/kg, po qd at 20 hrs. It counts as ADME, organism-based. Particulars: in vivo, read-out: Drug uptake.
Data set [14] in a line: Ratio of free drug level in brain of Sprague-Dawley rat assessed as 6-(4-chlorophenyl)-3-(4-(2-hydroxy-2-methylpropoxy)-3-methoxyphenyl)thieno[3,2-d]pyrimidin-4(3H)-one level at 10 mg/kg, po to Ki for rat MCHR1. Type of data set: ADME, organism-based. The conditions noted are these: in vivo.
Data set [15] deals with Plasma. The experiment in a line: Fraction unbound in Sprague-Dawley rat plasma assessed as 6-(4-chlorophenyl)-3-(4-(2-hydroxy-2-methylpropoxy)-3-methoxyphenyl)thieno[3,2-d]pyrimidin-4(3H)-one level. It counts as ADME, cell-free.
Data set [16] concerns Rattus norvegicus. The experiment in a line: Prodrug conversion in oral-dosed Sprague-Dawley rat assessed as 6-(4-chlorophenyl)-3-(4-(2,3-dihydroxy-2-methylpropoxy)-3-methoxyphenyl)thieno[3,2-d]pyrimidin-4(3H)-one formation. It counts as ADME, organism-based. The conditions noted are these: in vivo.
Data set [17] concerns Rattus norvegicus. The experiment in a line: Prodrug conversion in oral-dosed Sprague-Dawley rat assessed as 3-(4-(6-(4-chlorophenyl)-4-oxothieno[3,2-d]pyrimidin-3(4H)-yl)-2-methoxyphenoxy)-2-hydroxy-2-methylpropanoic acid formation. It counts as ADME, organism-based. Particulars: in vivo.
The subject of data set [18] is Brain. Kind of data set: Free drug level in Sprague-Dawley rat brain assessed as 6-(4-chlorophenyl)-3-(4-(2-hydroxy-2-methylpropoxy)-3-methoxyphenyl)thieno[3,2-d]pyrimidin-4(3H)-one level at 10 mg/kg, po qd at 20 hrs. It counts as ADME, organism-based. Particulars: in vivo.
The subject of data set [19] is Brain. The experiment in a line: Free drug level in Sprague-Dawley rat brain assessed as 6-(5-chloropyridin-2-yl)-3-(4-((3,3-difluoro-1-hydroxycyclobutyl)methoxy)-3-methoxyphenyl)pyrrolo[1,2-f][1,2,4]triazin-4(3H)-one level at 3 mg/kg, po qd at 20 hrs. It counts as ADME, organism-based. The conditions noted are these: in vivo.
For data set [20], the system named is Brain. The experiment in a line: Drug concentration in Sprague-Dawley rat brain assessed as 6-(5-chloropyridin-2-yl)-3-(4-((3,3-difluoro-1-hydroxycyclobutyl)methoxy)-3-methoxyphenyl)pyrrolo[1,2-f][1,2,4]triazin-4(3H)-one level at 30 mg/kg, po qd at 20 hrs. It counts as ADME, organism-based. The conditions noted are these: in vivo, read-out: Drug uptake.
The subject of data set [21] is Brain. Kind of data set: Drug concentration in Sprague-Dawley rat brain assessed as 6-(5-chloropyridin-2-yl)-3-(4-((3,3-difluoro-1-hydroxycyclobutyl)methoxy)-3-methoxyphenyl)pyrrolo[1,2-f][1,2,4]triazin-4(3H)-one level at 10 mg/kg, po qd at 8 hrs. Type of data set: ADME, organism-based. The conditions noted are these: in vivo, read-out: Drug uptake.
The test system of data set [22] is Brain. Kind of data set: Drug concentration in Sprague-Dawley rat brain assessed as 6-(5-chloropyridin-2-yl)-3-(4-((3,3-difluoro-1-hydroxycyclobutyl)methoxy)-3-methoxyphenyl)pyrrolo[1,2-f][1,2,4]triazin-4(3H)-one level at 10 mg/kg, po qd at 20 hrs. It counts as ADME, organism-based. Particulars: in vivo, read-out: Drug uptake.
The next data set has as its system Nucleic Acid. Kind of data set: Ratio of drug level in Sprague-Dawley rat brain to plasma assessed as 6-(5-chloropyridin-2-yl)-3-(4-((3,3-difluoro-1-hydroxycyclobutyl)methoxy)-3-methoxyphenyl)pyrrolo[1,2-f][1,2,4]triazin-4(3H)-one level at 10 mg/kg, po qd. It counts as ADME, organism-based.
Data set [23] has as its system Plasma. Kind of data set: Plasma concentration in Sprague-Dawley rat assessed as 6-(5-chloropyridin-2-yl)-3-(4-((3,3-difluoro-1-hydroxycyclobutyl)methoxy)-3-methoxyphenyl)pyrrolo[1,2-f][1,2,4]triazin-4(3H)-one level at 10 mg/kg, po qd at 8 hrs. Particulars: in vivo. Type of data set: ADME, organism-based.
In data set [24] the test system is Plasma. Kind of data set: Fraction unbound in Sprague-Dawley rat plasma assessed as 6-(5-chloropyridin-2-yl)-3-(4-((3,3-difluoro-1-hydroxycyclobutyl)methoxy)-3-methoxyphenyl)pyrrolo[1,2-f][1,2,4]triazin-4(3H)-one level. It counts as ADME, cell-free.
Data set [25] can be described thus: Ratio of free drug level in brain of Sprague-Dawley rat assessed as 6-(5-chloropyridin-2-yl)-3-(4-((3,3-difluoro-1-hydroxycyclobutyl)methoxy)-3-methoxyphenyl)pyrrolo[1,2-f][1,2,4]triazin-4(3H)-one level at 30 mg/kg, po to Ki for rat MCHR1. Type of data set: ADME, organism-based. The conditions noted are these: in vivo.
Data set [26] has as its system Brain. Kind of data set: Drug concentration in Sprague-Dawley rat brain assessed as 6-(5-chloropyridin-2-yl)-3-(4-((3,3-difluoro-1-hydroxycyclobutyl)methoxy)-3-methoxyphenyl)pyrrolo[1,2-f][1,2,4]triazin-4(3H)-one level at 3 mg/kg, po qd at 20 hrs. It counts as ADME, organism-based. The conditions noted are these: in vivo, read-out: Drug uptake.
Data set [27] can be described thus: Ratio of free drug level in brain of Sprague-Dawley rat assessed as 6-(5-chloropyridin-2-yl)-3-(4-((3,3-difluoro-1-hydroxycyclobutyl)methoxy)-3-methoxyphenyl)pyrrolo[1,2-f][1,2,4]triazin-4(3H)-one level at 3 mg/kg, po to Ki for rat MCHR1. Type of data set: ADME, organism-based. Particulars: in vivo.
Data set [28] is described as follows: Ratio of free drug level in brain of Sprague-Dawley rat assessed as 6-(5-chloropyridin-2-yl)-3-(4-((3,3-difluoro-1-hydroxycyclobutyl)methoxy)-3-methoxyphenyl)pyrrolo[1,2-f][1,2,4]triazin-4(3H)-one level at 10 mg/kg, po to Ki for rat MCHR1. It counts as ADME, organism-based. The conditions noted are these: in vivo.
For data set [29], the system named is Brain. The experiment in a line: Free drug level in Sprague-Dawley rat brain assessed as 6-(5-chloropyridin-2-yl)-3-(4-((3,3-difluoro-1-hydroxycyclobutyl)methoxy)-3-methoxyphenyl)pyrrolo[1,2-f][1,2,4]triazin-4(3H)-one level at 30 mg/kg, po qd at 20 hrs. Type of data set: ADME, organism-based. The conditions noted are these: in vivo.
Data set [30] deals with Brain. Kind of data set: Free drug level in Sprague-Dawley rat brain assessed as 6-(5-chloropyridin-2-yl)-3-(4-((3,3-difluoro-1-hydroxycyclobutyl)methoxy)-3-methoxyphenyl)pyrrolo[1,2-f][1,2,4]triazin-4(3H)-one level at 10 mg/kg, po qd at 20 hrs. Particulars: in vivo. Type of data set: ADME, organism-based.

We go through 3 compounds from ChEMBL document CHEMBL3616440, “Non-basic azolotriazinone MCHR1 antagonists for the treatment of obesity: An empirical brain-exposures-driven candidate selection for in vivo efficacy studies” (Bioorg Med Chem Lett, 2015).

The term inhibition in vivo denotes the share of the control response that was lost under treatment. On to `CC(C)[C@H](N)C(=O)OC1CCN(c2ccc(-n3cnn4cc(-c5ccc(Cl)cc5)cc4c3=O)cn2)CC1`, for which the values for the Ratio in data set [1], in data set [6] and in data set [7] were less than 0.2, less than 1.7 and less than 1.1, respectively. Besides, in the data set on Rattus norvegicus [2], the inhibition in vivo at 3 mg/kg amounted to 1.3%. In addition, the Fu in the data set on Plasma [3] was less than 0.2%. In addition, the figures for the concentration with Brain [4], in the data set on Brain [11] and with Brain [13] were 1.97 µM, 10.1 µM and 15.1 µM, respectively. The figures for the “Drug uptake(free)” value in the data set with Brain [5], in the data set on Brain [8] and in the data set on Brain [9] were less than 20 nM, less than 3.9 nM and less than 30 nM, respectively. The inhibition in vivo at 30 mg/kg in the data set with Rattus norvegicus [10] was 2.6%. The inhibition in vivo at 10 mg/kg in the data set with Rattus norvegicus [12] was found to be 1.3%.
`COc1cc(-n2cnc3cc(-c4ccc(Cl)cc4)sc3c2=O)ccc1OCC(C)(C)OC(=O)CN`: the Ratio in [14] was determined as 1.6. Moreover, the Fu in the data set with Plasma [15] stood at 0.7%. Also, the Drug metabolism result in the data set with Rattus norvegicus [16] and in the data set with Rattus norvegicus [17] was “metabolite_detected” each time. Also, in the data set on Rattus norvegicus [12], the inhibition in vivo at 10 mg/kg was 6.9%. In the data set on Brain [18], the “Drug uptake(free)” value was determined as 11.3 nM.
On to `COc1cc(-n2cnn3cc(-c4ccc(Cl)cn4)cc3c2=O)ccc1OCC1(OC(=O)CN)CC(F)(F)C1`, for which the results for the “Drug uptake(free)” value in the data set on Brain [19], with Brain [29] and in the data set with Brain [30] were 63.9 nM, 624 nM and 616 nM, respectively. The concentration in the data set on Brain [20] was determined as 23.9 µM; in the data set with Brain [21] it was 3.59 µM; in the data set on Brain [22] it was 16 µM; with Plasma [23] it was 5.59 µM; with Brain [26], 3.87 µM. In addition, the BPR with Nucleic Acid is reported as 0.6. Besides, the inhibition in vivo at 3 mg/kg in the data set with Rattus norvegicus [2] worked out at 1.6%. The Fu result in the data set on Plasma [24] is given as “<= 0.1%”. For the same compound, the Ratio result in [25] is recorded as “<= 3.7”; in data set [27] it was “<= 0.6”; in [28], “<= 2.5”. In the data set with Rattus norvegicus [10], the inhibition in vivo at 30 mg/kg amounted to 13%. Further, in the data set with Rattus norvegicus [12], the inhibition in vivo at 10 mg/kg came to 4.4%.
